Measured values taken from US20070042975A1, “Novel indolopyrrolocarbazole derivative with antitumor activity” (priority 2003, published 2007).

What follows are compounds tested on MKN-45 (Human Stomach Cancer Cells) (assay: Cell-growth suppressive effect against MKN-45 cells (WST-8 method)). Conditions: 72 h, 3 days incubation with medicament, read-out: 50% Growth Inhibiting Activity (IC50, μM) MKN-45 Cells.
Assay type: cell-based
Description: (§1) Method for Judging the Pharmaceutical Effect using Cells
(§2) Fetal calf serum (FCS) was purchased from Molgate and a DMEM medium was purchased from Asahi Techno Glass.
(§3) MKN-45, human stomach cancer cell, was purchased from the Immune Biology Laboratory. HCT 116, human colorectal cancer cell, was purchased from the American Type Culture Collection (ATCC).
(§4) Cells were suspended in a DMEM medium to which 10% of FCS were added, and a cell suspension was dispensed to a 96-well plastic plate to an extent of 1000 cells/50 microliters per well. Incubation was carried out at 37° C. for one night in 5% CO2-95% air. Each medicament was subjected to a gradient dilution using dimethyl sulfoxide or an appropriate solvent and each 50 microliters were dispensed to a microplate to which cells were sowed previously. Incubation was carried out for 3 days more at 37° C. in 5% CO2-95% air.
With `O=C1c2c(c3c4ccc(O)cc4n([C@@H]4O[C@H](CO)[C@@H](O)[C@H](O)[C@H]4O)c3c3[nH]c4cc(O)ccc4c23)C(=O)N1NCc1ccc[nH]1` [Example 12, 6-N-(2-1H-pyrrolylmethyl)amino-12,13-dihydro-2,10-dihydroxy-12-β-D-glucopyranosyl-5H-indolo[2,3-a]pyrrolo[3,4-c]carbazole-5,7(6H)-dione] the IC50 was 0.002 µM.
In the case of `O=C1c2c(c3c4ccc(O)cc4n([C@@H]4O[C@H](CO)[C@@H](O)[C@H](O)[C@H]4O)c3c3[nH]c4cc(O)ccc4c23)C(=O)N1NCc1cc(CO)sc1CO` [Example 4, 6-N-(2,5-dihydroxymethyl-3-thienylmethyl)amino-12,13-dihydro-2,10-dihydroxy-12-β-D-glucopyranosyl-5H-indolo[2,3-a]pyrrolo[3,4-c]carbazole-5,7(6H)-dione], the IC50 was 0.0012 µM.
`O=C1c2c(c3c4ccc(O)cc4n([C@@H]4O[C@H](CO)[C@@H](O)[C@H](O)[C@H]4O)c3c3[nH]c4cc(O)ccc4c23)C(=O)N1NCc1cnccn1` [Example 5, 6-N-pyrazinylmethylamino-12,13-dihydro-2,10-dihydroxy-12-β-D-glucopyranosyl-5H-indolo-[2,3-a]pyrrolo[3,4-c]carbazole-5,7(6H)-dione] was tested, and the IC50 was 0.0028 µM.
With `O=C1c2c(c3c4ccc(O)cc4n([C@@H]4O[C@H](CO)[C@@H](O)[C@H](O)[C@H]4O)c3c3[nH]c4cc(O)ccc4c23)C(=O)N1NCc1ccnc2ccccc12` [Example 6, 6-N-(4-quinolinylmethylamino)-12,13-dihydro-2,10-dihydroxy-12-β-D-glucopyranosyl-5H-indolo[2,3-a]pyrrolo[3,4-c]carbazole-5,7(6H)-dione] the IC50 was 0.0014 µM.
Compound `O=C1c2c(c3c4ccc(O)cc4n([C@@H]4O[C@H](CO)[C@@H](O)[C@H](O)[C@H]4O)c3c3[nH]c4cc(O)ccc4c23)C(=O)N1NCc1cc([N+](=O)[O-])c[nH]1` [Example 10, 6-N-(4-nitro-2-1H-pyrrolylmethyl)amino-12,13-dihydro-2,10-dihydroxy-12-β-D-glucopyranosyl-5H-indolo[2,3-a]pyrrolo[3,4-c]carbazole-5,7(6H)-dione] has an IC50 of 0.004 µM.

Each compound was assayed on HCT-116 (Human Colorectal Cancer Cells) (assay: Cell-growth suppressive effect against HCT-116 cells (WST-8 method)). Conditions: 72 h, 3 days incubation with medicament, read-out: 50% Growth Inhibiting Activity (IC50, μM) HCT-116 Cells.
Assay type: cell-based
Description: as §1, §2, §3, §4
Compound `O=C1c2c(c3c4ccc(O)cc4n([C@@H]4O[C@H](CO)[C@@H](O)[C@H](O)[C@H]4O)c3c3[nH]c4cc(O)ccc4c23)C(=O)N1NCc1cc[nH]n1` [Example 14, 6-N-(3-1H-pyrazolylmethyl)amino-12,13-dihydro-2,10-dihydroxy-12-β-D-glucopyranosyl-5H-indolo[2,3-a]pyrrolo[3,4-c]carbazole-5,7(6H)-dione] has an IC50 of 0.0012 µM.
In the case of `O=C1c2c(c3c4ccc(O)cc4n([C@@H]4O[C@H](CO)[C@@H](O)[C@H](O)[C@H]4O)c3c3[nH]c4cc(O)ccc4c23)C(=O)N1NCc1c[nH]cn1` [Example 15, 6-N-(4-1H-imidazolylmethyl)amino-12,13-dihydro-2,10-dihydroxy-12-β-D-glucopyranosyl-5H-indolo[2,3-a]pyrrolo[3,4-c]carbazole-5,7(6H)-dione], the IC50 was 0.0016 µM.
`O=C1c2c(c3c4ccc(O)cc4n([C@@H]4O[C@H](CO)[C@@H](O)[C@H](O)[C@H]4O)c3c3[nH]c4cc(O)ccc4c23)C(=O)N1OCc1cccc(CO)n1` [Example 19, 6-N-(6-hydroxymethyl-2-pyridylmethoxy)-12,13-dihydro-2,10-dihydroxy-12-β-D-glucopyranosyl-5H-indolo[2,3-a]pyrrolo[3,4-c]carbazole-5,7(6H)-dione] gave an IC50 of 0.0037 µM.
Compound `O=C1c2c(c3c4ccc(O)cc4n([C@@H]4O[C@H](CO)[C@@H](O)[C@H](O)[C@H]4O)c3c3[nH]c4cc(O)ccc4c23)C(=O)N1CCc1ccncc1` [Example 39, 6-N-(2-(4-pyridyl)ethyl)-12,13-dihydro-2,10-dihydroxy-12-β-D-glucopyranosyl-5H-indolo-[2,3-a]pyrrolo[3,4-c]carbazole-5,7(6H)-dione] has an IC50 of 0.005 µM.
Work on `COC(=O)c1cccc(CNN2C(=O)c3c(c4c5ccc(O)cc5n([C@@H]5O[C@H](CO)[C@@H](O)[C@H](O)[C@H]5O)c4c4[nH]c5cc(O)ccc5c34)C2=O)n1` [Example 16, 6-N-(2-methoxycarbonyl-6-pyridylmethyl)amino-12,13-dihydro-2,10-dihydroxy-12-β-D-glucopyranosyl-5H-indolo[2,3-a]pyrrolo[3,4-c]carbazole-5,7(6H)-dione] yielded an IC50 of 0.0049 µM.
Compound `O=C1c2c(c3c4ccc(O)cc4n([C@@H]4O[C@H](CO)[C@@H](O)[C@H](O)[C@H]4O)c3c3[nH]c4cc(O)ccc4c23)C(=O)N1OCc1ccncc1CO` [Example 30, 6-N-(3-hydroxymethyl-4-pyridylmethoxy)-12,13-dihydro-2,10-dihydroxy-12-β-D-glucopyranosyl-5H-indolo[2,3-a]pyrrolo[3,4-c]carbazole-5,7(6H)-dione] has an IC50 of 0.00076 µM.
`O=C1c2c(c3c4ccc(O)cc4n([C@@H]4O[C@H](CO)[C@@H](O)[C@H](O)[C@H]4O)c3c3[nH]c4cc(O)ccc4c23)C(=O)N1OCc1ccncc1` [Example 18, 6-N-(4-pyridylmethoxy)-12,13-dihydro-2,10-dihydroxy-12-β-D-glucopyranosyl-5H-indolo-[2,3-a]pyrrolo[3,4-c]carbazole-5,7(6H)-dione] gave an IC50 of 0.0023 µM.
